Like-named read-outs stand apart in the source and are kept apart here.
Columns and labels:
in vitro [1] = settings: human
in vitro [2] = settings: African green monkey
SARS‐CoV‐2 M^pro = SARS‐CoV‐2 M^pro (Severe acute respiratory syndrome coronavirus 2, UniProt P0DTD1); assay: SARS‐CoV‐2 main protease enzymatic assay (FRET inhibitor screening kit); format: biochemical; settings: for inhibition at 5 µM: read-out: Inhibitionrate at @5μM
SARS‐CoV‐2 = assay: microbe, parasite or virus in culture; format: cell-based; settings: Severe acute respiratory syndrome coronavirus 2, Vero cells
[3] = test system: SARS‐CoV‐2 (hCoV‐19/Korea/KCDC06/2020, wild type); assay: microbe, parasite or virus in culture; format: cell-based
[4] = with CP‐100356, read-out: EC50 ± SD, Vero cells, with P‐gp inhibitor
[5] = without CP‐100356, read-out: EC50 ± SD, Vero cells, without P‐gp inhibitor
[6] = Calu‐3 cells, without CP‐100356, read-out: EC50 ± SD, Calu‐3 cells, without P‐gp inhibitor
[7] = Severe acute respiratory syndrome coronavirus 2, Calu-3, Calu‐3 cells, with CP‐100356, read-out: EC50 ± SD, Calu‐3 cells, with P‐gp inhibitor
[8] = Severe acute respiratory syndrome coronavirus 2, Calu-3, Calu‐3 cells, without CP‐100356, read-out: EC50 ± SD, Calu‐3 cells, without P‐gp inhibitor

Structure (SMILES) | CC50 at 2 day (in vitro [1]; CC50, Calu‐3 cells, MTT assay) [nM] | CC50 at 2 day (in vitro [2]) [nM] | IC50 (SARS‐CoV‐2 M^pro) [nM] | inhibition of M^pro enzymatic activity, first round of screening (SARS‐CoV‐2 M^pro) [%] | inhibition at 5 µM (SARS‐CoV‐2 M^pro) [%] | EC50 (SARS‐CoV‐2; [4]) [nM] | EC50 (SARS‐CoV‐2; [5]) [nM] | EC50 [3, 6] [nM] | EC50 [3, 7] [nM] | EC50 [3, 8] [nM] | CC50 at 2 day (in vitro [1]) [nM] | IC50 (SARS‐CoV‐2 M^pro; purified compounds, FRET assay) [nM]
Cc1cncc(C(=O)N2C[C@H]3CC[C@@H](C2)N3C(c2cccc(F)c2)c2cn(Cc3ccc([N+](=O)[O-])cc3)nn2)c1 (stereo partly shown) [Compound C5N6] | > 100000 | > 100000 | 2500 ± 13 | 88 | 68.8 | 1740 ± 238 | 1830 ± 30 | 767 ± 156 | 1050 ± 14 | < 1000 | – | –
CNC(=O)Cn1cc(C(c2cccc(F)c2)N2[C@@H]3CC[C@H]2CN(C(=O)c2cncc(C)c2)C3)nn1 (stereo partly shown) [Compound C5N57] | > 100000 | > 100000 | 580 ± 5 | 96 | 85.1 | > 10000 | > 100000 | – | 2330 ± 66 | 4040 ± 986 | – | –
Cc1cncc(C(=O)N2C[C@H]3CC[C@@H](C2)N3C(c2cccc(F)c2)c2cn(C[S+]([O-])c3ccccc3)nn2)c1 (stereo partly shown) [Compound C5N41] | > 100000 | > 100000 | 243 ± 11 | 100 | 92.3 | 2270 ± 89 | 3670 ± 513 | – | 97 ± 5 | 1780 ± 1 | – | –
Cc1cncc(C(=O)N2C[C@H]3CC[C@@H](C2)N3C(c2cccc(F)c2)c2cn(Cc3cccc(F)c3)nn2)c1 (stereo partly shown) [Compound C5N64] | > 100000 | > 100000 | 1230 ± 100 | 93 | 79.9 | 2860 ± 131 | 4200 ± 738 | – | 479 ± 26 | 2940 ± 124 | – | –
Cc1cncc(C(=O)N2C[C@H]3CC[C@@H](C2)N3C(c2cccc(F)c2)c2cn(Cc3ccc(S(C)(=O)=O)cc3)nn2)c1 (stereo partly shown) [Compound C5N50] | > 100000 | > 100000 | 2400 ± 100 | 90 | 69 | 6570 ± 430 | 36100 ± 1380 | – | 2900 ± 263 | 17000 ± 778 | – | –
O=C(c1cccnc1)N1CCN(C(c2cccc(F)c2)c2cn(CCc3ccsc3)nn2)CC1 (stereo not shown) [Compound C4N17] | – | > 100000 | – | 86 | 72.3 | 2460 ± 314 | 2740 ± 110 | – | 880 ± 109 | 1850 ± 139 | > 100000 | 1870 ± 13
Cc1cncc(C(=O)N2C[C@H]3CC[C@@H](C2)N3C(c2cccc(F)c2)c2cn(CS(=O)(=O)c3ccccc3)nn2)c1 (stereo partly shown) [Compound C5N42] | > 100000 | > 100000 | 196 ± 9 | 101 | 96.2 | 3050 ± 206 | 3680 ± 952 | – | 133 ± 19 | 1770 ± 55 | – | –
Cc1cncc(C(=O)N2C[C@H]3CC[C@@H](C2)N3C(c2cccc(F)c2)c2cn(CCc3ccccc3)nn2)c1 (stereo partly shown) [Compound C5N16] | > 100000 | > 100000 | 283 ± 18 | 99 | 93 | 1890 ± 524 | 2000 ± 21 | – | 80 ± 2 | – | – | –
COC(=O)CCCn1cc(C(c2cccc(F)c2)N2[C@@H]3CC[C@H]2CN(C(=O)c2cncc(C)c2)C3)nn1 (stereo partly shown) [Compound C5N39] | > 100000 | > 100000 | 253 ± 10 | 96 | 87.6 | 1600 ± 249 | 1870 ± 270 | 899 ± 312 | 253 ± 26 | < 1000 | – | –
O=C(c1cccnc1)N1CCN(C(c2cccc(F)c2)c2cn(CCN3C(=O)c4ccccc4C3=O)nn2)CC1 (stereo not shown) [Compound C4N21] | – | 69800 ± 1050 | – | 82 | 80.2 | > 10000 | > 69800 | – | 4020 ± 566 | 74400 ± 36300 | > 100000 | 1300 ± 17

From PMC11578313, “Miniaturized Modular Click Chemistry‐enabled Rapid Discovery of Unique SARS‐CoV‐2 M^pro Inhibitors With Robust Potency and Drug‐like Profile” (Advanced Science, 2024)
